Results on four molecules are retold here after patent US8071103B2, “Pharmaceutical composition comprising a human GLP-1 mimetibody” (Centocor, Inc., priority 2006, dated 2011).

For one test, the system named is RINm cells. In words: Insulin secretion in RINm cells. The note with it: peptides 0-5 nM, mimetibodies 5 or 50 nM, ELISA. Format: cell-based. How it is done:
GLP-1 MMB causes insulin secretion in RINm cells. To test the effect of GLP-1 MMB in insulin secretion, RINm cells were treated with increasing concentrations of GLP-1 (7-36) peptide (0-5 nM), exendin-4 peptide (0-5 nM), or various GLP-1 mimetibodies (5 or 50 nM) and the amount of insulin secreted was measured via ELISA. All GLP-1 MMBs tested had activities in stimulating insulin secretion in RINm cells (FIG. 6).
(In general: In an ELISA, binding on a coated surface is turned into a signal by an enzyme label.)

The target of test [1] is T1, GLP-1 receptor (Mus musculus, UniProt O35659).
T1 construct: Male GLP-1R−/− and age matched wild type mice; from tissue; host or cells: whole animal (wild type mice; GLP-1R-/- mice as receptor-free control)
T1 sequence (O35659 22-463): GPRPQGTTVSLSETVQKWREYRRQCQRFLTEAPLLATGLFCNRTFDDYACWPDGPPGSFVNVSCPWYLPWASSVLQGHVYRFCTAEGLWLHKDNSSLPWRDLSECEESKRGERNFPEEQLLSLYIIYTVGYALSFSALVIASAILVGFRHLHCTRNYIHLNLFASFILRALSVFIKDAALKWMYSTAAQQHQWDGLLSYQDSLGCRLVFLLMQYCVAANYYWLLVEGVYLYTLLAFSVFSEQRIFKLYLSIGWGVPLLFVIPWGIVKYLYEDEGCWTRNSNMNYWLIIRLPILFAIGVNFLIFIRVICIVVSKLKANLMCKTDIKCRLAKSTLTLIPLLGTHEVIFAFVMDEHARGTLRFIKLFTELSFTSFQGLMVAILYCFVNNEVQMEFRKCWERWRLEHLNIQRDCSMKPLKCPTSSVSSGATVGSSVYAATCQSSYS
Nature of the test: Food intake in GLP-1R−/− and wild type mice. The note with it: wild type mice, single iv, GLP-1 MMB 1 mg/kg, exendin-4 0.07 mg/kg. Format: in vivo. The source says:
(§1) Materials/Methods: Animals: Male GLP-1R−/− and age matched wild type mice were randomized into three treatment groups (n=5) based on body weight and fasting blood glucose.

For test [2], the system named is GLP-1 receptor. Nature of the test: Food intake in GLP-1R−/− and wild type mice. Format: in vivo. As to conditions: GLP-1R−/− mice, single iv, GLP-1 MMB 1 mg/kg, exendin-4 0.07 mg/kg.
Excerpt: as §1

For test [3], the target named is T1, GLP-1 receptor. In words: Glucose tolerance test (ipGTT) in GLP-1R−/− and wild type mice. As to conditions: wild type mice, single iv, GLP-1 MMB 1 mg/kg, exendin-4 0.07 mg/kg. Format: in vivo. How it is done: as §1
Glucose tolerance test (ipGTT): Mice were fasted overnight and dosed intravenously as discussed above. Fasting glucose was measured via tail snips using a hand-held glucometer (LifeScan). At t=0 min, mice were dosed i.p. with D-glucose (1.0 mg/g, Sigma) and blood glucose was measured after 15, 30, 60, 90 and 120 min using tail vein blood

Test [4] has as its target T1, GLP-1 receptor. Nature of the test: Gastric emptying in GLP-1R−/− and wild type mice. Format: in vivo. As to conditions: wild type mice, single iv, GLP-1 MMB 1 mg/kg, exendin-4 0.07 mg/kg. Here is the method: as §1
(§2) Gastric Emptying: Mice were fasted overnight. The next morning mice were re-fed for 1 h, food intake was recorded and the mice were deprived of food for the rest of the study. Mice were dosed intravenously as discussed above. Two hours post-dosing mice were euthenized.
(§3) The stomach was exposed by laparotomy, ligated at both the pylorus and cardia and removed.
(§4) The stomach content wet weight was measured. Equation 1 was used to calculate the percent of food remaining in the stomach. (Stomach Content Wet Weight (g)/Food Intake (g))*100 Equation (1)

The subject of test [5] is GLP-1 receptor. Nature of the test: Gastric emptying in GLP-1R−/− and wild type mice. Format: in vivo. As to conditions: GLP-1R−/− mice, single iv, GLP-1 MMB 1 mg/kg, exendin-4 0.07 mg/kg. How it is done:
as §1, §2, §3, §4

Another test deals with db/db mice. In words: Blood glucose after intravenous dosing in db/db mice. Format: in vivo. The note with it: 0.5-4 hours post-dosing. Here is the method: Blood glucose was monitored 0.5, 1, 2, 3, and 4 hours post-dosing.
In another test the test system is normal dogs. In words: Gastric emptying in normal dogs. Format: in vivo, beagle dogs. The note with it: relative to vehicle. How it is done:
A gastric cannula was surgically implanted into female beagle dogs (10-15 kg) under general anesthesia and allowed to recover for at least 2 weeks. Dogs were fasted for 24 hours after which water was freely available. The gastric cannula was opened and gastric juice and food remnants were removed with 40-50 ml of lukewarm water. Groups of six dogs were dosed subcutaneously with lidamidine, an alpha2 agonist (0.63 mg/kg), 60 minutes before the meal, a positive control for delay of gastric emptying. […] Five minutes before the meal, the gastric cannula was opened to determine the amount of fluid present in stomach for baseline value and fluid was promptly reintroduced. Then a test meal consisting of 250 ml of a glucose solution (5 g/1) was administered via the cannula and allowed to remain in the stomach for 30 minutes. Gastric contents were drained from the stomach to measure total volume after 30 minutes. […] Glucose concentrations were evaluated for collected samples and used to determine the absolute amount of glucose remaining in the stomach at each time point. The percentage of glucose retained in the stomach was determined from the starting value and the concentration of glucose at each time point and plotted as a function of time. The time at which 50% of the gastric contents were retained was determined by fitting of the curves to a single exponential.

Where no end group is shown, it is not given here.

Regarding exendin-4 [reference compound], the “insulin secretion in RINm cells” value in the test on RINm cells was “stimulates insulin release”. Besides, the “24 hour cumulative food intake compared to CNTO1996” value on GLP-1 receptor [1] is on record as “statistically significant reduction”. Further, the food intake result in the test with GLP-1 receptor [2] is reported as “no effect”. In addition, the “AUC of ipGTT” value at GLP-1 receptor [3] is reported as “statistically significant reduction”. The “stomach content (percent of food remaining) 2 h after dosing compared to CNTO1996” value at GLP-1 receptor [4] is given as “statistically significant increase”. Also, the gastric emptying entry in the test with GLP-1 receptor [5] is recorded as “no effect”.
With “GLP-1 (7-36) peptide: wide-type GLP-1 (7-36) peptide (HAEGTFTSDVSSYLEGQAAKEFIAWLVKGR; ends and bridges not checked; UniProt P01275 98-127, looked up)”, the “insulin secretion in RINm cells” value in the test with RINm cells is on record as “stimulates insulin release”.
As for `CC[C@H](C)[C@H](NC(=O)[C@H](Cc1ccccc1)NC(=O)[C@H](CCC(=O)O)NC(=O)[C@H](CCCCN)NC(=O)[C@H](C)NC(=O)[C@H](C)NC(=O)[C@H](CCC(N)=O)NC(=O)CNC(=O)[C@H](CCC(=O)O)NC(=O)[C@H](CC(C)C)NC(=O)[C@H](Cc1ccc(O)cc1)NC(=O)[C@H](CO)NC(=O)[C@H](CO)NC(=O)[C@@H](NC(=O)[C@H](CC(=O)O)NC(=O)[C@H](CO)NC(=O)[C@@H](NC(=O)[C@H](Cc1ccccc1)NC(=O)[C@@H](NC(=O)CNC(=O)[C@H](CCC(=O)O)NC(=O)[C@H](C)NC(=O)[C@@H](N)Cc1c[nH]cn1)[C@@H](C)O)[C@@H](C)O)C(C)C)C(=O)N[C@@H](C)C(=O)N[C@@H](Cc1c[nH]c2ccccc12)C(=O)N[C@@H](CC(C)C)C(=O)N[C@H](C(=O)N[C@@H](CCCCN)C(=O)NCC(=O)N[C@@H](CCCNC(=N)N)C(N)=O)C(C)C` [GLP-1 peptide], the blood glucose result with db/db mice is recorded as “lowered blood glucose at 30 minutes”.
Take `CN=C(N)NC(=O)Nc1c(C)cccc1C` [lidamidine]: the gastric emptying entry with normal dogs was “significant delay in gastric emptying”.
